Residues, ends and D or L forms follow the SMILES beside them. *: point of attachment. Cbz = O=C(OCc1ccccc1)*; CH2F = FC*
What was measured:
cfPac-1 cells = experiment: Flow cytometric analysis of Annexin V-FITC binding (surface PS) after irradiation; format: cell-based, human; conditions: cfPac-1 cells irradiated at 10 Gy, 10 μM Z-VAD-fmk, assessed 24 hr later
Description: Unless otherwise stated, cells at 60-80% confluency were irradiated and then, after the appropriate time, were trypsinized, resuspended in complete medium, spun down, and washed once with PBS then resuspended in annexin V staining buffer. Cells (1×10^5) were incubated at room temperature in the dark for 15 minutes in a final volume of 100 μl containing 10 μl Annexin V-FITC (Invitrogen, Carlsbad, Calif.) and 2 μg/ml propidium iodide (PI, BD-Pharmingen, Eugene, Oreg.). Annexin V-FITC binding was measured by flow cytometry after adding 400 μl of annexin V binding buffer, using a BD Fortessa. Data was analyzed with BD FACS Diva. For quantifying the annexin V-FITC signal from living cells, PI positive dead cells were gated out and the annexin V-FITC signal was obtained from PI negative forward scattered, cells.
Cells were grown to 60-80% confluence in 60 mm dishes then exposed to (^137Cs) irradiation with a GammaCell 40 Exactor (Nordion international) at doses of 0, 2, 6, 10 or 16 Gy. The media was changed and the cells were processed for surface PS determination at the indicated times. Mice were irradiated at 10 Gy with an Xstrahl D3100 superficial systems (at 100 kV) with 2 cm cone and projected 1 cm deep.

[1] = tested on: A2058, cfPac-1 and U87MG cell lines; experiment: Cell viability (MTT) assay of serially irradiated cells treated with chemotherapeutic drugs; format: cell-based, human; conditions: 5 Gy weekly for multiple weeks, drug 7 days after last irradiation, MTT 72 hr later
Description: Non serially-irradiated cells are designated R0. Media was changed immediately after the irradiation and the cells were split every 3-4 days. Treatments were given 4-7 days following the last 5 Gy irradiation, when the surface PS is still elevated. A) Timeline of the treatment regime. B) Surface PS was determined by Annexin V-FITC staining on Day 4 following the last 5 Gy irradiation. Rx; x=15 for A2058 and 10 for cfPac-1 and U87MG. * p<0.05, ** p<0.01 compared to R0. Shown are the mean and S.D. C-E) Cells were serially irradiated with 5 Gy. (top panel, A2058 cells; middle panel, cfPac-1 cells; bottom panel, U87MG cells) C) 7 days later they were exposed to the indicated doses of radiation and cell viability was determined by MTT assay was performed 72 hr. later. Shown is the % of live cells with 100% as the normalized control for each cell line, * p<0.05. ** p<0.01, compared to R0. D) 7 days after the last 5 Gy irradiation, cells were treated with different doses of gemcitabine (GEM) temozolomide (TMZ) or cisplatin and cell viability was determined by MTT assay was performed 72 hr. later. * p<0.05, ** p<0.01, compared to R0 at the same dose of drug. E.) 7 days following the last 5 Gy irradiation, cells were treated with the indicated doses of SapC-DOPS (1 SapC:7 DOPS, Mol:Mol) and cell viability was determined by MTT assay was performed 72 hr. later. […]

Q: Which “radiation-induced surface PS elevation (Annexin V binding)” value (cfPac-1 cells) does the source give for `COC(=O)C[C@H](NC(=O)[C@H](C)NC(=O)[C@@H](NC(=O)OCc1ccccc1)C(C)C)C(=O)CF` [Z-VAD fmk] (Cbz-Val-Ala-Asp(OMe)-CH2F) here?
A: Its value is “completely eliminated the radiation-induced surface PS elevation”.

Q: With `N.N.[Cl][Pt][Cl]` [cisplatin] as the compound, how does the “sensitivity of serially irradiated cells to chemotherapeutic drugs (MTT cell viability) compared to R0” value [1] read?
A: The value was “more resistant”.

Q: `Nc1ccn([C@@H]2O[C@H](CO)[C@@H](O)C2(F)F)c(=O)n1` [gemcitabine] was tested. Which “sensitivity of serially irradiated cells to chemotherapeutic drugs (MTT cell viability) compared to R0” value [1] did it give?
A: Its value is “more resistant”.
